Reference: patent US7973024B2, “24-sulfoximine vitamin D3 compounds” (Cyctochroma Inc., priority 2002, dated 2011)

Tests used:
Format in all cases: cell-based
CYP24 [1] = molecular target: T1, CYP24 (Homo sapiens, UniProt Q07973); test: CYP24 enzyme assay (induced HPK1A-ras cells); conditions: HPK1A-ras cells induced with 1,25(OH)2D3; [3H]-1,25(OH)2D3 substrate, 2 hour
T1 construct: expressed in transfected cells
T1 sequence (Q07973 36-514): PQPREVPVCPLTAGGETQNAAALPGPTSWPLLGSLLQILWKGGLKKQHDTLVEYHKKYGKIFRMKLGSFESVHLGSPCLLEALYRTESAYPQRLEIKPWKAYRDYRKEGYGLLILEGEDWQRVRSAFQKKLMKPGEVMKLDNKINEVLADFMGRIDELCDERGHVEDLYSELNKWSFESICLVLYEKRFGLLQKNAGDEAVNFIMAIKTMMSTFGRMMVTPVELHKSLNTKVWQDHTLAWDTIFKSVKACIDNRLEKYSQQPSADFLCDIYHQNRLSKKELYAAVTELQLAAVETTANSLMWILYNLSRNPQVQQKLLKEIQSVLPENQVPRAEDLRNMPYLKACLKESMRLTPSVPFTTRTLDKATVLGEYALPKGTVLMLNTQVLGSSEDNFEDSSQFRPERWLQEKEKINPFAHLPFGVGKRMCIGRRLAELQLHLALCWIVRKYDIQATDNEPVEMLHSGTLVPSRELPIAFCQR
Procedure: 1.25(OH)2D3 10^−5 M (Sigma, St. Louis, Mo.);
Preparation of 10^−5 M working solution is as follows:
Dissolve 1 mg of 1,25(OH)2D3 into 480 μl of isopropanol to make 5×10^−3 M stock solution. Store at −70° C. until needed. Aliquot 1 μl of 1.25(OH)2D3 5×10^−3 M stock solution to 499 μl of isopropanol to make 1.25(OH)2D3 10^−5 working solution. Store at −20° C. until needed. […] Induction of HPKIA-ras cells (The day before assay) • When the HPK1A-ras cells were 80-90% confluent, added 1 μL 10^−5 M 1.25(OH)2D3 to 1 mL medium in the plate (final concentration is 10^−8 M). • 2. Preparation of cell suspension • After 18 to 20 hours induction, removed the medium and washed the cell twice with PBS. Then tripsinized the cells from plate, centrifuged (2,000 rpm, 5 min) and suspended cells pellet in DMEM medium+1% BSA. • Counted the cells and adjusted cells density to 250,000/150 μL, added 150 μL cell suspension to each well in 48-well plate (including 3 wells as a no cell control, and 3 well cells without drug or inhibitor as controls). • 3. […] Kept the plate in 37° C. for 10 min. • 4. Preparation of substrate • For each ml required, added 972 μl of DMEM+1% BSA medium, 20 μl of 3H-1,25(OH)2D3, and 8 μl of 100 nM DPPD to a tube and vortexed. • 5. Incubation • Added 25 μL substrate to each well, incubated the plate at 37° C. for 2 hour. • Added 25 μL substrate to counting plate (2 well) as a total count. • 6. Lipid Extraction and Counting • Added 500 μL methanol to each well to stop the reaction, transferred them to tube. • Added 250 μL dichloromethane and vortex. • Added 250 μL dichloromethane and […] saturated KCI, and vortex. • Centrifuged at 4000 rpm for 5 min. • Transferred 100 μL of aqueous phase (upper phase) to counting plastic counting plate. Added 600 μL of scintillation fluid to each well. Counted the plate in scintillation counter. • 7. Calculation Enzyme Activity • CPM of cell control after subtraction of CPM of non-cell control (NCC) was as 100% enzyme activity.
• Dilution of test compounds • Stock 10^−3 M

CYP24 [2] = molecular target: T1, CYP24; test: CYP24 enzyme assay (stable cell line V79-CYP24 cells); conditions: [3H-1β]-1α,25(OH)2D3 20 nM, 2 hours
Procedure: 1. Preparation of Cell Suspension • On the day of the assay, washed the monolayer of V79-CYP24 cells once with 1×PBS buffer and then trypsinize for 5 min at room temperature (approx. 22° C.). Added 1×PBS. Collected cells into tube, centrifuged cells (500×g, 5 min) and resuspended in DMEM+1% BSA media.
2. Cell Plating • Added 150 μl of cell suspension to appropriately labelled wells of a 48-well plate. Incubated plate for 30 minutes at 37° C. in a humidified atmosphere containing 5% CO2 for adherence of cells to wells.
3. Compound Addition • Added 25 μl of inhibitor (10^−6 to 10^−9 M) and then after 10 min added 25 μl of substrate [^3H-1β]-1α,25(OH)2D3 (20 nM) for 2 hours at 37° C. in a humidified atmosphere containing 5% CO2. Both inhibitor and substrate were prepared in DMEM with 1% BSA media in the absence and presence of 100 μM DPPD.
4. Lipid Extraction and Counting • Added 500 μL of methanol to stop the reaction. Transferred to tube. Added 250 μl of dichloromethane and vortexed. Added 250 μl of dichloromethane and 250 μl of saturated KCL and vortexed. Centrifuged at 4000 rpm for 5 min. Triplicate 100 μl aliquots of aqueous fraction were mixed with 600 μl of scintillation fluid and the radioactivity was measured using a scintillation counter. All values were normalized for background. (iii) Results.

SCC-25 cells = test: [3H]-thymidine proliferation assay with SCC-25 cells; conditions: together with calcitriol, three days, [3H]-thymidine 6 h
Procedure: 1. Preparation of Cell Suspension • When SCC-25 cells were 70-80% confluent, aspirated media. Washed the cells with 1×PBS. Trypsinized with trypsin-EDTA from the plate, collected cells from the tissue culture flask, centrifuged (500×g, 5 min) and resuspended in media.
2. Cell Plating. • Counted the cells and adjusted the cell density to 10,000/ml. Added 200 μl per well in a 96 well plate. Incubated plate for 24 h at 37° C. in a humidified atmosphere plus 5% CO2. Aspirated used media and replaced with 150 μl per well with media.
3. Compound Addition. • Added 25 μl of 1α,25(OH)2D3 (final concentration 10^−6M, 10^−7 M, 10^−8 M, M, 10^−10 M, 10^−11 M) into each designated well. Added 25 μl of substrate (final concentration 10^−7 M, 5×10^−8 M, 10^−8 M or 10^−9 M) into each designated well. Incubated plates for 3 days at 37° C. in a humidified atmosphere plus 5% CO2.
4. ^3H-Thymidine Incorporation. • Added ^3H-thymidine at 0.02 μCi per well and incubated at 37° C. in a humidified atmosphere plus 5% CO2 for 6 h.
5. Plate Harvesting. • Aspirated all media and washed cells with 1×PBS. Trypsinized cells for 30 min at 37° C. in a humidified atmosphere plus 5% CO2. Harvested cells onto a 96 well filter plate (Millipore) using a Tomtec Cell Harvestor, according to manufacturers instructions.
6. Scintillation Counting. • Added 25 μl of scintillation fluid per well. Counted the plate using a scintillation counter.

Question: `C=C1/C(=C\C=C2/CCC[C@]3(C)[C@@H]([C@H](C)CCS(=N)(=O)c4ccccc4)CC[C@@H]23)C[C@@H](O)C[C@@H]1O` (single isomer, unassigned) [I(c)] was tested. Which IC50 (CYP24 [1]) did it give?
Answer: 33 nM

Question: What about the IC50 (CYP24 [2]) of the same compound?
Answer: 20 nM

Question: And the “inhibition of proliferation of SCC-25 cells” value (SCC-25 cells)?
Answer: act to inhibit the proliferation
